# In PMC10837223, “Acute antiarrhythmic effects of SGLT2 inhibitors–dapagliflozin lowers the excitability of atrial cardiomyocytes” (Basic Research in Cardiology, 2024):
# Molecular target: T1, NaV1.5 (Homo sapiens, UniProt Q14524, Y1767A)
# T1 construct: gene SCN5A
# Assay: cell-based
# Conditions: CHO, read-out: % reduction at 100 μmol/L
# T1 sequence (Q14524 whole entry Y1767A): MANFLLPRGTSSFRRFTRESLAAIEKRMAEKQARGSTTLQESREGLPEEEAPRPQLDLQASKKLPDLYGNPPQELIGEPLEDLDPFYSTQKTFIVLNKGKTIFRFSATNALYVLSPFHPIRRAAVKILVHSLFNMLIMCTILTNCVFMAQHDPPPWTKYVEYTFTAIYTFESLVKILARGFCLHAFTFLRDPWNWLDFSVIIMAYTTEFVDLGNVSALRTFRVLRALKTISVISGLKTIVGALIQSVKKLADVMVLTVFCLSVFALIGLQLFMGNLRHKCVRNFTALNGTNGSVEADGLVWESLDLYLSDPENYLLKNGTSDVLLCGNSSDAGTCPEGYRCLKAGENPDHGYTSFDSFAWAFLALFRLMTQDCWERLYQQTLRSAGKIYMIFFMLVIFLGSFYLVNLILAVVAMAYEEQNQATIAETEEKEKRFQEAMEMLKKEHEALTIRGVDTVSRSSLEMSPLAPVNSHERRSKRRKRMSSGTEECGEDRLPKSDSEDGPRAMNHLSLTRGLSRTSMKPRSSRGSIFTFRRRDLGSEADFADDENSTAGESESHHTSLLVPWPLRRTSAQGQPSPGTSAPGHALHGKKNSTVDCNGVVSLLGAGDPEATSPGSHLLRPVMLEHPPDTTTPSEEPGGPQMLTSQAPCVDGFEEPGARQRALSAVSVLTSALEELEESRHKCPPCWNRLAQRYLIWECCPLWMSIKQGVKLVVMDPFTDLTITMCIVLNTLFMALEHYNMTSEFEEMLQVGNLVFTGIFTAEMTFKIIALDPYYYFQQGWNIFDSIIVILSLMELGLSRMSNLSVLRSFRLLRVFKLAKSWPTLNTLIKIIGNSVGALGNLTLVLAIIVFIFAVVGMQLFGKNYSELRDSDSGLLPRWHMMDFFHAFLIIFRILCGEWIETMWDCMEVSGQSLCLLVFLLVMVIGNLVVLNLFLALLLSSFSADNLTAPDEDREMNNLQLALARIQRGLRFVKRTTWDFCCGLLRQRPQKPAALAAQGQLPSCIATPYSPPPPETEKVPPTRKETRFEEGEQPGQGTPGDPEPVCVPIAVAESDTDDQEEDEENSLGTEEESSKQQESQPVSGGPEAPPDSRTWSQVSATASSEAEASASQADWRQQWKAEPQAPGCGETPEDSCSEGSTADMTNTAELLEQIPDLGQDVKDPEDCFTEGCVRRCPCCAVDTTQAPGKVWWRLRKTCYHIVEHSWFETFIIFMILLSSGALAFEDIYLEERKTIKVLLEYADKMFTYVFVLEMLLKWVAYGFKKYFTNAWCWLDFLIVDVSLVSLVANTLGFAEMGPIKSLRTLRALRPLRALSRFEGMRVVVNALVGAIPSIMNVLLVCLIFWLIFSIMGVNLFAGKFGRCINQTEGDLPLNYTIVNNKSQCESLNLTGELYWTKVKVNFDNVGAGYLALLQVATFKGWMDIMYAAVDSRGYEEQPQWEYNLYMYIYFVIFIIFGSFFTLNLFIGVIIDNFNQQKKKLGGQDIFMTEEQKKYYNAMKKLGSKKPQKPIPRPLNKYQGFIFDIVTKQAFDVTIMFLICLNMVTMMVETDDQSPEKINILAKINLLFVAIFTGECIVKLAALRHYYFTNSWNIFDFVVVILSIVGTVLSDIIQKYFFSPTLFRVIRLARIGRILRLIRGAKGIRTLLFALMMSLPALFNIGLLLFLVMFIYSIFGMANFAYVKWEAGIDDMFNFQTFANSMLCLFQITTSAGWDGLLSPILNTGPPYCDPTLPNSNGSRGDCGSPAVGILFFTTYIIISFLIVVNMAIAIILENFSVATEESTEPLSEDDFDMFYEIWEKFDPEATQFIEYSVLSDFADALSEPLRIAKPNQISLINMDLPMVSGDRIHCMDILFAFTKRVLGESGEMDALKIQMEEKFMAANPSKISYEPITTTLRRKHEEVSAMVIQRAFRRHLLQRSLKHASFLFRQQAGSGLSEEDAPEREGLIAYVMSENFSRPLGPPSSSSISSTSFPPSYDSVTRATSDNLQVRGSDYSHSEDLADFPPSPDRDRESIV
structure (smiles),measurement,value
CCOc1ccc(Cc2cc([C@@H]3O[C@H](CO)[C@@H](O)[C@H](O)[C@H]3O)ccc2Cl)cc1 [dapagliflozin],inhibition at 100 µM,68.3 ± 4.2%
